# Biological target: T1, human KV 1.5 (Homo sapiens, UniProt P22460)
# T1 construct: expressed in transfected cells; host or cells: mammalian L-929 cells (mouse fibroblast line)
# Experiment: Block of IKur current in patch clamped L-929 cells expressing human Kv1.5
# Assay type: cell-based
# Details: 0.3 μM; patch clamped mammalian L-929 cells stably expressing human Kv1.5 (IKur)
# Source text: 1. Synders, D. J.; et al., “A rapidly activating and slowly inactivating potassium channel cloned from human heart: functional analysis after stable mammalian cell culture expression”, J. Gen. Physiol., 101:513-543 (1993). […]
# T1 sequence (P22460 whole entry): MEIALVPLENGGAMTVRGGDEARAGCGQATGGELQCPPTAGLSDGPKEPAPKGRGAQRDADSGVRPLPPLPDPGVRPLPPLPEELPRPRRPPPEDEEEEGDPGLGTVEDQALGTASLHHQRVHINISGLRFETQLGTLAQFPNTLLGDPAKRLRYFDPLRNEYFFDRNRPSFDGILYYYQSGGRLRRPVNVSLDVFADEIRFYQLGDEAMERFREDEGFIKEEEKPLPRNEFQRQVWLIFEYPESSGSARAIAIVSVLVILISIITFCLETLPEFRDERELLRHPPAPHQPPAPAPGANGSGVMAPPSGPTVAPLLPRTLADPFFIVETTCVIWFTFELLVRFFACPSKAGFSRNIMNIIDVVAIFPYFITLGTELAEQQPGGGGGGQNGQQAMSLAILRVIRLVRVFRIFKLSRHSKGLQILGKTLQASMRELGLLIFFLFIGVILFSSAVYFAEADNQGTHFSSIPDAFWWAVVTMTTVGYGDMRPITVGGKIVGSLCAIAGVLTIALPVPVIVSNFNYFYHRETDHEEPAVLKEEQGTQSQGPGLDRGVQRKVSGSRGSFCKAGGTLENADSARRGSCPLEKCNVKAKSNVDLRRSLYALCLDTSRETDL
row,KV1_5% Inh L929 @0.3 μM [%],Structure (SMILES)
1,84,"CC(Nc1nnc(-c2cncc(S(N)(=O)=O)c2)c2cccc(-c3ccccc3)c12)c1ccccn1 (stereo not shown) [Example 34, 5-(5-Phenyl-4-((1-(pyridin-2-yl)ethyl)amino)phthalazin-1-yl)pyridine-3-sulfonamide]"

# Same assay, conditions: L929, 0.3 μM; patch clamped mammalian L-929 cells stably expressing human Kv1.5 (IKur); read-out: KV1_5% Inh L929 @0.3 μM
row,inhibition at 0.3 µM [%],Structure (SMILES)
1,71,"CS(=O)(=O)Nc1cccc(NC(=O)c2cncc(-c3nnc(NCc4ccccn4)c4c(-c5ccccc5)cccc34)c2)c1 [Example 14, N-(3-(Methylsulfonamido)phenyl)-5-(5-phenyl-4-(pyridin-2-ylmethylamino)phthalazin-1-yl)nicotinamide]"
2,78.6,"NS(=O)(=O)c1cncc(-c2nnc(NCc3ncccc3F)c3c(-c4ccccc4)cccc23)c1 [Example 37, 5-(4-((3-Fluoropyridin-2-yl)methylamino)-5-phenylphthalazin-1-yl)pyridine-3-sulfonamide]"
3,93.5,"NS(=O)(=O)c1cncc(-c2nnc(NC[C@H](O)c3ccccc3)c3c(-c4ccccc4)cccc23)c1 [Example 41, (R)-5-(4-((2-Hydroxy-2-phenylethyl)amino)-5-phenylphthalazin-1-yl)pyridine-3-sulfonamide]"
4,51.1,"NC(=O)Nc1cncc(-c2nnc(NCc3ccccc3)c3c(-c4ccccc4)cccc23)c1 [Example 10, 1-(5-(4-(Benzylamino)-5-phenylphthalazin-1-yl)pyridin-3-yl)urea]"
5,87.1,"Nc1cncc(-c2nnc(NCc3ccccn3)c3c(-c4ccccc4)cccc23)c1 [Example 9, 4-(5-Aminopyridin-3-yl)-8-phenyl-N-(pyridin-2-ylmethyl) phthalazin-1-amine]"
6,78,"O=C(Nc1cncc(-c2nnc(NCc3ccccc3)c3c(-c4ccccc4)cccc23)c1)OCC(F)(F)F [Example 27, 2,2,2-Trifluoroethyl (5-(4-(benzylamino)-5-phenylphthalazin-1-yl)pyridin-3-yl)carbamate]"
7,90.5,"NS(=O)(=O)c1cncc(-c2nnc(NCc3ccccc3)c3c(-c4ccccc4)cccc23)c1 [Example 8, 5-(4-(Benzylamino)-5-phenylphthalazin-1-yl)pyridine-3-sulfonamide]"
8,91.5,"CC(C)CC(=O)Nc1cncc(-c2nnc(NCc3ccccc3)c3c(-c4ccccc4)cccc23)c1 [Example 22, N-(5-(4-(Benzyl-amino)-5-phenylphthalazin-1-yl)pyridin-3-yl)-3-methylbutanamide]"
9,53.2,"NS(=O)(=O)c1cncc(-c2nnc(NCc3cccc(F)c3)c3c(-c4ccccc4)cccc23)c1 [Example 32, 5-(4-((3-Fluorobenzyl)amino)-5-phenylphthalazin-1-yl)pyridine-3-sulfonamide]"
10,78.4,"NS(=O)(=O)c1cncc(-c2nnc(NCc3cc(Cl)cc(Cl)c3)c3c(-c4ccccc4)cccc23)c1 [Example 39, 5-(4-((3,5-Dichlorobenzyl)amino)-5-phenylphthalazin-1-yl)pyridine-3-sulfonamide]"
11,87.4,"NS(=O)(=O)c1cncc(-c2nnc(NCc3ccccc3F)c3c(-c4ccccc4)cccc23)c1 [Example 31, 5-(4-((2-Fluorobenzyl)amino)-5-phenylphthalazin-1-yl)pyridine-3-sulfonamide]"
12,51.1,"COCCNC(=O)c1cncc(-c2nnc(NCc3ccccn3)c3c(-c4ccccc4)cccc23)c1 [Example 46, N-(2-Methoxyethyl)-5-(5-phenyl-4-((pyridin-2-ylmethyl)amino)phthalazin-1-yl)nicotinamide]"
13,71.1,"CC(Nc1nnc(-c2cncc(S(N)(=O)=O)c2)c2cccc(-c3ccccc3)c12)c1ccccn1 (stereo not shown) [Example 33, 5-(5-Phenyl-4-((1-(pyridin-2-yl)ethyl)amino)phthalazin-1-yl)pyridine-3-sulfonamide]"
14,93.1,"COc1ncc(-c2nnc(NCc3ccccc3)c3c(-c4ccccc4)cccc23)cn1 [Example 26, N-Benzyl-4-(2-methoxy-pyrimidin-5-yl)-8-phenylphthalazin-1-amine]"
15,86.8,"C[C@H](Nc1nnc(-c2cncc(S(N)(=O)=O)c2)c2cccc(-c3ccccc3)c12)c1ccccc1 [Example 43, (S)-5-(5-Phenyl-4-((1-phenylethyl)amino)phthalazin-1-yl)pyridine-3-sulfonamide]"
16,80.2,"Oc1cc(-c2nnc(NCc3ccccc3)c3c(-c4ccccc4)cccc23)ccn1 [Example 25, 4-(4-(Benzyl-amino)-5-phenylphthalazin-1-yl)pyridin-2-ol]"
17,92.5,"CC(C)CC(=O)Nc1cncc(-c2nnc(NCc3ccccn3)c3c(-c4ccccc4)cccc23)c1 [Example 30, 3-Methyl-N-(5-(5-phenyl-4-((pyridin-2-ylmethyl)amino)phthalazin-1-yl)pyridin-3-yl)butanamide]"
18,90.2,"NS(=O)(=O)c1cncc(-c2nnc(NCc3cccc(OC(F)(F)F)c3)c3c(-c4ccccc4)cccc23)c1 [Example 40, 5-(5-Phenyl-4-((3-(trifluoromethoxy)benzyl)amino)phthalazin-1-yl)pyridine-3-sulfonamide]"
19,38.3,"O=C(NCC(O)CO)c1cncc(-c2nnc(NCc3ccccn3)c3c(-c4ccccc4)cccc23)c1 (stereo not shown) [Example 6, N-(2,3-Dihydroxypropyl)-5-(5-phenyl-4-(pyridin-2-ylmethylamino)phthalazin-1-yl)nicotinamide]"
20,98.6,"O=C(NCCc1ccccc1F)c1cncc(-c2nnc(NCc3ccccn3)c3c(-c4ccccc4)cccc23)c1 [Example 50, N-(2-Fluorophenethyl)-5-(5-phenyl-4-((pyridin-2-ylmethyl)amino)phthalazin-1-yl)nicotinamide]"
21,96.5,"O=C(NCc1ccc(OC(F)(F)F)cc1)c1cncc(-c2nnc(NCc3ccccn3)c3c(-c4ccccc4)cccc23)c1 [Example 44, 5-(5-Phenyl-4-((pyridin-2-ylmethyl)amino)phthalazin-1 yl)-N-(4-(trifluoromethoxy)benzyl)nicotinamide]"
22,68.1,"NS(=O)(=O)c1cncc(-c2nnc(NCc3ncccn3)c3c(-c4ccccc4)cccc23)c1 [Example 29, 5-(5-Phenyl-4-((pyrimidin-2-ylmethyl)amino)phthalazin-1-yl)pyridine-3-sulfonamide]"
23,41.5,"NS(=O)(=O)c1cncc(-c2nnc(NCc3ccccc3)c3c(-c4ccc(F)cc4)cccc23)c1 [Example 28, 5-(4-(Benzylamino)-5-(4-fluorophenyl)phthalazin-1-yl)pyridine-3-sulfonamide]"
24,94.9,"NS(=O)(=O)c1cncc(-c2nnc(NCc3cccc(C(F)(F)F)c3)c3c(-c4ccccc4)cccc23)c1 [Example 38, 5-(5-Phenyl-4-((3-(trifluoromethyl)benzyl)amino)phthalazin-1-yl) pyridine-3-sulfonamide]"

row,Structure (SMILES),inhibition at 0.3 µM [%]
1,"CC(C)(C)Oc1cc(-c2nnc(NCc3ccccc3)c3c(-c4ccccc4)cccc23)ccn1 [Example 13, N-Benzyl-4-(2-tert-butoxypyridin-4-yl)-8-phenylphthalazin-1-amine]",43
2,"CC(=O)Nc1cncc(-c2nnc(NCc3ccccc3)c3c(-c4ccccc4)cccc23)c1 [Example 2, N-(5-(4-(Benzylamino)-5-phenylphthalazin-1-yl)pyridin-3-yl)acetamide]",83.9
3,"CC(=O)Nc1cncc(-c2nnc(NCc3ccccn3)c3c(-c4ccccc4)cccc23)c1 [Example 11, N-(5-(5-Phenyl-4-(pyridin-2-ylmethylamino)phthalazin-1-yl)pyridin-3-yl)acetamide]",78.8

# From patent publication US9242966B2, “Phthalazines as potassium ion channel inhibitors” (BRISTOL-MYERS SQUIBB COMPANY, priority 2013, dated 2016)
